{"source": "patent US20230190680A1", "about": "“METHODS AND COMPOSITIONS FOR TREATING AN RNA VIRUS INDUCED DISEASE” (Golden Biotechnology Corporation, priority 2020, published 2023)", "key": {"HBeAg": {"system": "HBeAg", "test": "ELISA of HBeAg in HepG2.2.15 supernatants", "assay_type": "cell-based, HBV", "details": "72 hours, FIG. 1A", "experimental": "(§1) Cell Culture. HepG2.2.15 cell line was cultured in MEM medium, supplemented with 10% fetal bovine serum, penicillin (100 IU/ml; Gibco, USA), and streptomycin (100 ug/ml; Gibco, USA) in 5% CO2 incubator at 37° C. This is a cell line derived from human hepatoblastoma cell line HepG2 and characterized by having stable HBV expression. Qs5 is HBV-producing rat hepatoma cell lines.\n(§2) Lamivudine (3TC) and Adefovir dipivoxil (Adv) are marketed for HBV treatment as positive controls. Antroquinonol (G4) and Lamivudine (3TC) dissolved in dimethylsulfoxide (DMSO) only for stock solutions and diluted in culture medium. The final concentration of DMSO in cells is less 0.1%. Drugs treated with 2×10^4 cells in 96-well plate for 72 hours.\n(§3) The levels of HBsAg and HBeAg in HepG2.2.15 supernatants were measured using their commercial enzyme-linked immunosorbent assay (ELISA) kits following the manufacturer’s instructions.\n(§4) To examine the effect of Antroquinonol on HBV protein expression, including surface antigen (HBsAg) and e antigen (HBeAg), ELISA assay was used to quantify HBV replication. The study results have shown that Compound 1 (i.e., Antroquinonol) reduces HBeAg (see FIG. 1A) and HBsAg (see FIG. 1B) expression levels. Compound 1 in comparison with Lamivudine, has shown reduction in the expression levels of the two major HBV biomarkers, HBeAg and HBsAg by 50% and 40% respectively."}, "NF-kB": {"system": "NF-kB", "test": "Renal inflammation, NF-kB activation model (FIG. 7): NF-kB expression", "assay_type": "in vivo"}, "TGFB1": {"system": "TGFB1", "assay_type": "cell-based", "details": "20 µM, DMSO 2.59-fold"}, "IL-6": {"system": "IL-6", "test": "Local renal inflammation marker IL-6 (FIG. 8)", "assay_type": "in vivo"}, "CXCL10": {"system": "CXCL10", "assay_type": "cell-based", "details": "DMSO 9.04 fold"}, "COL4A1": {"system": "COL4A1", "assay_type": "cell-based", "details": "20 µM; DMSO 2.37-fold; FIG. 13B"}, "HCV RNA": {"system": "HCV RNA", "test": "HCV RNA activity (FIG. 2B)", "assay_type": "cell-based"}, "CD3": {"system": "CD3", "test": "Local renal inflammation marker CD3 (FIG. 8)", "assay_type": "in vivo"}, "IL6": {"system": "IL6", "assay_type": "cell-based", "details": "10 µM; DMSO 47.81-fold; FIG. 12B"}, "IL18": {"system": "IL18", "assay_type": "cell-based", "details": "20 µM, DMSO 1.36-fold"}, "SARS-CoV-2": {"system": "SARS-CoV-2", "assay_type": "cell-based", "details": "Vero E6 cells, MOI = 0.1, 24 h, FIG. 10"}, "MCP-1": {"system": "MCP-1", "test": "Local renal inflammation marker MCP-1 (FIG. 8)", "assay_type": "in vivo"}, "HBsAg": {"system": "HBsAg", "test": "ELISA of HBsAg in HepG2.2.15 supernatants", "assay_type": "cell-based, HBV", "details": "72 hours, FIG. 1B", "experimental": "as §1, §2, §3, §4"}, "HepG2.2.15 cells": {"system": "HepG2.2.15 cells", "test": "MTT assay (cytotoxicity)", "assay_type": "cell-based, human", "experimental": "as §1\nMTT assay. 1.25 ×10^5 cells/well were seeded onto 24-well plate. Cells were incubated with varying concentrations of G4 and 3TC (1, 5, 25, 50, 100 and 200 uM) for 72 hours. 1 mg/ml 3-(4, 5-dimethylthiazol-2-yl)-2, 5- diphenyltetrazolium- bromide (MTT) was added to each well and incubated for 2 hours at 37° C. to allow formation of the colored crystals. Medium was replaced with DMSO and plates were incubated for 15 minutes at room temperature with shaking to dissolve the crystals. The absorbance was measured by the microplate reader. The optical density was measured at 490 nm."}, "Nrf-2": {"system": "Nrf-2", "test": "Renal inflammation, NF-kB activation model (FIG. 7): nuclear Nrf-2 expression", "assay_type": "in vivo"}}, "note": "Read-outs that look alike come from different tables or passages of the source."}
{"smiles": "COC1=C(OC)C(O)C(C/C=C(\\C)CC/C=C(\\C)CCC=C(C)C)C(C)C1=O", "note": "(stereo not drawn) [Compound 1, 4-hydroxy-2,3-dimethoxy-6-methyl-5-(3,7,11-trimethyldodeca-2,6,10-trienyl)cyclohex-2-enone]", "values": [{"measurement": "reduction in the expression level of HBeAg", "setting": "HBeAg", "value": 50, "unit": "%"}, {"measurement": "suppression in NF-kB expression", "setting": "NF-kB", "value": 36, "unit": "%"}, {"measurement": "change in TGFB1 expression", "setting": "TGFB1", "value": 0.99, "unit": "fold"}, {"measurement": "suppression of IL-6 expression", "setting": "IL-6", "value": "~57", "unit": "%"}, {"measurement": "change in CXCL10 expression", "setting": "CXCL10; 10 µM", "value": 3.40, "unit": "fold"}, {"measurement": "change in CXCL10 expression", "setting": "CXCL10; 20 µM", "value": 1.01, "unit": "fold"}, {"measurement": "change in COL4A1 expression", "setting": "COL4A1", "value": 0.65, "unit": "fold"}, {"measurement": "reduction in HCV RNA activity", "setting": "HCV RNA", "value": 95, "unit": "%"}, {"measurement": "suppression of CD3 expression", "setting": "CD3", "value": "~66", "unit": "%"}, {"measurement": "change in IL6 expression", "setting": "IL6", "value": 11.88, "unit": "fold"}, {"measurement": "change in IL18 expression", "setting": "IL18", "value": 0.89, "unit": "fold"}, {"measurement": "reduction of SARS-CoV-2 concentration", "setting": "SARS-CoV-2; 10 µM", "value": 91.20, "unit": "%"}, {"measurement": "reduction of SARS-CoV-2 concentration", "setting": "SARS-CoV-2; 20 µM", "value": 99.93, "unit": "%"}, {"measurement": "suppression of MCP-1 expression", "setting": "MCP-1", "value": "around 50%"}, {"measurement": "reduction in the expression level of HBsAg", "setting": "HBsAg", "value": 40, "unit": "%"}, {"measurement": "cytotoxicity by MTT assay", "setting": "HepG2.2.15 cells; over 25 uM", "value": "cytotoxicity effects"}, {"measurement": "cytotoxicity by MTT assay", "setting": "HepG2.2.15 cells; up to exposure to 5 uM", "value": "No apparent cytotoxicity"}, {"measurement": "enhancement in nuclear Nrf-2 expression", "setting": "Nrf-2", "value": 2, "unit": "times"}]}
